Data as given in ChEMBL document CHEMBL1201862, “PubChem BioAssay data set” (2004).
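Following 48 hours of exposure in 96-well plates, responses at five concentrations were used to interpolate endpoints linearly. The concentration for 50% growth inhibition is given as GI50.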 Active and inactive are the calls of the source. No stated cut-off is given here; in the data, active = GI50 up to about 1.1 µM and inactive = higher.

How the values were obtained:
Experiment in all cases: NCI anticancer screen, dose series, 48 h
A549 = test system: A549
OVCAR-8 = test system: OVCAR-8
SW-620 = test system: SW-620
HOP-62 = test system: HOP-62
A498 = test system: A498
RPMI-8226 = test system: RPMI-8226
MCF7 = test system: MCF7
TK-10 = test system: TK-10
UO-31 = test system: UO-31
NCI-H460 = test system: NCI-H460
OVCAR-4 = test system: OVCAR-4
Malme-3M = test system: Malme-3M
HOP-92 = test system: HOP-92
UACC-62 = test system: UACC-62
SF-268 = test system: SF-268
SK-MEL-5 = test system: SK-MEL-5
SN12C = test system: SN12C
SNB-19 = test system: SNB-19
IGROV-1 = test system: IGROV-1
HL-60 = test system: HL-60

Structure (SMILES) | GI50 (A549) | GI50 (OVCAR-8) | GI50 (SW-620) | GI50 (HOP-62) | GI50 (A498) | GI50 (RPMI-8226) | GI50 (MCF7) | GI50 (TK-10) | GI50 (UO-31) | GI50 (NCI-H460) | GI50 (OVCAR-4) | GI50 (Malme-3M) | GI50 (HOP-92) | GI50 (UACC-62) | GI50 (SF-268) | GI50 (SK-MEL-5) | GI50 (SN12C) | GI50 (SNB-19) | GI50 (IGROV-1) | GI50 (HL-60)
Nc1nc(=O)[nH]cc1F [FLUCYTOSINE] | > 100 µM (inactive) | > 100 µM (inactive) | > 100 µM (inactive) | > 100 µM (inactive) | > 100 µM (inactive) | > 100 µM (inactive) | > 100 µM (inactive) | > 100 µM (inactive) | > 100 µM (inactive) | > 100 µM (inactive) | > 100 µM (inactive) | > 100 µM (inactive) | > 100 µM (inactive) | > 100 µM (inactive) | > 100 µM (inactive) | > 100 µM (inactive) | > 100 µM (inactive) | > 100 µM (inactive) | > 100 µM (inactive) | > 100 µM (inactive)
C=C1C(=O)O[C@@H]2/C=C(\C)CC/C=C(\C)CC[C@@]12O | 11.6 µM (inactive) | 1.91 µM (inactive) | 1.04 µM (active) | 5.07 µM (inactive) | 9.12 µM (inactive) | 0.948 µM (active) | 2.17 µM (inactive) | 1.73 µM (inactive) | 1.48 µM (inactive) | 9.55 µM (inactive) | 1.98 µM (inactive) | 1.53 µM (inactive) | 1.78 µM (inactive) | 9.35 µM (inactive) | 5.37 µM (inactive) | 4.59 µM (inactive) | 2.44 µM (inactive) | 5.43 µM (inactive) | 3.52 µM (inactive) | 0.771 µM (active)
